The values below are quoted from earlier work in US20060136023A1 (priority 2004, published 2006).

One data set relates to shivering threshold. Conditions: in vivo.
In data set [1] the test system is clots. Conditions: clots treated with plasminogen (2 mg) and SK (100 IU) in 15 ml PBS; clot temperature raised from 24° C. to 37° C.
Data set [2] deals with T1, Plasminogen (Homo sapiens, UniProt P00747).
In data set [3] the test system is clots. Conditions: tPA 0.3, 1.0 and 3.0 μg/ml; incubated from 24° C. to 40° C.
Data set [4] addresses T1, Plasminogen. Conditions: clots treated with UK at 4° C.; heating to 28° C.

T1 sequence (P00747 20-810 limits assumed, species assumed): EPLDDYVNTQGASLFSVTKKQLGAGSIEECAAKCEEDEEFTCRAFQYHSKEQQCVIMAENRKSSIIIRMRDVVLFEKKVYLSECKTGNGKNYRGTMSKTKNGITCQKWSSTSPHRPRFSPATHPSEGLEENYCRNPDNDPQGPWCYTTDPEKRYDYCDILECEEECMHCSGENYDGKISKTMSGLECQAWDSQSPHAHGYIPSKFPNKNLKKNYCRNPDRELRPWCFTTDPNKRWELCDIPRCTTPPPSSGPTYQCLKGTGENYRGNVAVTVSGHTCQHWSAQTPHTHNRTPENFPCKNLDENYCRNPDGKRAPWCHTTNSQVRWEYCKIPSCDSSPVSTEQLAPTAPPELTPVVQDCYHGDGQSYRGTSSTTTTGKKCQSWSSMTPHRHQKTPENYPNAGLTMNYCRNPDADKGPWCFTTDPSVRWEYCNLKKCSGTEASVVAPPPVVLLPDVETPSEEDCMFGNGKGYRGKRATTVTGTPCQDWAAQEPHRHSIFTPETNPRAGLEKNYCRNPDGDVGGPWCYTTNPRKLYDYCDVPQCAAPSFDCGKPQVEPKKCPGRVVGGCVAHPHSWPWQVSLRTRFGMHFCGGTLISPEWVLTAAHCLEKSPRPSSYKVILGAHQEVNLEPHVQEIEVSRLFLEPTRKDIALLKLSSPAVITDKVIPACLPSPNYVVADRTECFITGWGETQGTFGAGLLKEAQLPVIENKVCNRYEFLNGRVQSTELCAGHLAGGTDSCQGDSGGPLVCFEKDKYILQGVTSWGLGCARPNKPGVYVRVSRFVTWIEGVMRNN

For `CN1CC[C@]23c4c5ccc(O)c4O[C@H]2[C@@H](O)C=C[C@H]3[C@H]1C5` [morphine], in the data set with shivering threshold, the antishivering activity entry was “less or no antishivering activity”.

Turning to `CC(C)=CCN1CCC2(C)c3cc(O)ccc3CC1C2C` (stereo not shown) [pentazocine], the antishivering activity entry in the data set with shivering threshold is given as “less or no antishivering activity”.

Consider streptokinase [SK], for which the fibrinolytic activity result in the data set with clots [1] is “heating enhanced the fibrinolytic activity”.

`Oc1ccc2c3c1O[C@H]1[C@@H](O)CC[C@@]4(O)[C@@H](C2)N(CC2CCC2)CC[C@]314` [nalbuphine]: the antishivering activity entry with shivering threshold is listed as “less or no antishivering activity”.

Consider `CN1CCOC(c2ccccc2)c2ccccc2C1` (racemic) [nefopam], for which, in the data set on shivering threshold, the antishivering activity result is recorded as “prevent post-operative shivering”.

On to `CCC(=O)OC1(c2ccccc2)CCN(C)CC1C` (racemic) [alpha prodine, Alpha prodine], for which, in the data set on opiate receptor, the “affinity for the opiate receptor, one enantiomer versus the other” value is on record as “(+) isomer has much greater affinity”.

As to `CCOC(=O)C1(c2ccccc2)CCN(C)CC1` [Meperidine], in the data set with shivering threshold, the “decrease of shivering threshold relative to vasoconstriction threshold” value is “twice as much”; the “effect on the gain and maximum intensity of shivering” value was “does not have much effect”.

With tissue plasminogen activator [tPA], the fibrinolytic activity result in the data set with Plasminogen [2] (2.5 μg/ml tPA, cooling from normal body temperature to a hypothermic temperature) was “increased fibrinolytic activity”. For the same compound, the Plasminogen activation entry with Plasminogen [2] (clots treated with 2.5 μg/ml tPA, incubated at 37, 25, 10, 0 and −8° C.) was “relatively high at low temperatures”. Besides, in the data set on clots [3], the “amount of clot lysis” value was “correlated with temperature at all concentrations”.

Consider `CCC(=O)O[C@@]1(c2ccccc2)CCN(C)C[C@@H]1C` [beta prodine], for which the “affinity for the opiate receptor, one enantiomer versus the other” value in the data set with opiate receptor is given as “(+) isomer has much greater affinity”.

Turning to urokinase [UK], in the data set with Plasminogen [4], the “conversion of plasminogen to plasmin (fibrinolytic activity)” value is “complete conversion of all plasminogen to plasmin”.
